Experiment: xn = mol fraction of the nth substance listed
Details: 101 kPa, Liquid; for mass density: Vibrating tube method

NCCO.O=CO [2-hydroxyethylammonium formate] + CCO
Details | mass density [kg/m3] | speed of sound [m/s]
288.15 K, x2 = 0 | 1183.57 | 1733.9
288.15 K, x2 = 0.058 | 1172.99 | 1741.5
288.15 K, x2 = 0.098 | 1161.05 | 1723
288.15 K, x2 = 0.193 | 1135.72 | 1681.5
288.15 K, x2 = 0.296 | 1110.04 | 1639
288.15 K, x2 = 0.399 | 1079.51 | 1587.5
288.15 K, x2 = 0.5 | 1044.58 | 1529.7
288.15 K, x2 = 0.598 | 1006.57 | 1468.7
288.15 K, x2 = 0.701 | 963.374 | 1402.4
288.15 K, x2 = 0.799 | 914.502 | 1333.5
288.15 K, x2 = 0.9 | 859.222 | 1261.8
288.15 K, x2 = 0.95 | 828.585 | 1223.4
290.65 K, x2 = 0 | 1181.81 | 1727.4
290.65 K, x2 = 0.058 | 1171.33 | 1736.2
290.65 K, x2 = 0.098 | 1159.38 | 1717.6
290.65 K, x2 = 0.193 | 1134.02 | 1675.9
290.65 K, x2 = 0.296 | 1108.32 | 1633.2
290.65 K, x2 = 0.399 | 1077.76 | 1581.4
290.65 K, x2 = 0.5 | 1042.78 | 1523.3
290.65 K, x2 = 0.598 | 1004.72 | 1461.9
290.65 K, x2 = 0.701 | 961.474 | 1395.3
290.65 K, x2 = 0.799 | 912.536 | 1326
290.65 K, x2 = 0.9 | 857.183 | 1253.7
290.65 K, x2 = 0.95 | 826.503 | 1215
293.15 K, x2 = 0 | 1180.04 | 1721.3
293.15 K, x2 = 0.058 | 1169.68 | 1730.9
293.15 K, x2 = 0.098 | 1157.72 | 1712.2
293.15 K, x2 = 0.193 | 1132.33 | 1670.3
293.15 K, x2 = 0.296 | 1106.6 | 1627.4
293.15 K, x2 = 0.399 | 1076 | 1575.3
293.15 K, x2 = 0.5 | 1040.98 | 1517
293.15 K, x2 = 0.598 | 1002.88 | 1455.1
293.15 K, x2 = 0.701 | 959.571 | 1388.2
293.15 K, x2 = 0.799 | 910.569 | 1318.5
293.15 K, x2 = 0.9 | 855.141 | 1245.7
293.15 K, x2 = 0.95 | 824.416 | 1206.8
295.65 K, x2 = 0 | 1178.27 | 1715.1
295.65 K, x2 = 0.058 | 1168.03 | 1725.6
295.65 K, x2 = 0.098 | 1156.05 | 1706.8
295.65 K, x2 = 0.193 | 1130.64 | 1664.8
295.65 K, x2 = 0.296 | 1104.87 | 1621.7
295.65 K, x2 = 0.399 | 1074.24 | 1569.2
295.65 K, x2 = 0.5 | 1039.18 | 1510.6
295.65 K, x2 = 0.598 | 1001.03 | 1448.4
295.65 K, x2 = 0.701 | 957.67 | 1381.1
295.65 K, x2 = 0.799 | 908.602 | 1311
295.65 K, x2 = 0.9 | 853.093 | 1237.8
295.65 K, x2 = 0.95 | 822.326 | 1198.5
298.15 K, x2 = 0 | 1176.49 | 1709
298.15 K, x2 = 0.058 | 1166.37 | 1720.4
298.15 K, x2 = 0.098 | 1154.38 | 1701.5
298.15 K, x2 = 0.193 | 1128.94 | 1659.3
298.15 K, x2 = 0.296 | 1103.15 | 1615.9
298.15 K, x2 = 0.399 | 1072.49 | 1563.2
298.15 K, x2 = 0.5 | 1037.38 | 1504.3
298.15 K, x2 = 0.598 | 999.182 | 1441.7
298.15 K, x2 = 0.701 | 955.767 | 1374.1
298.15 K, x2 = 0.799 | 906.63 | 1303.6
298.15 K, x2 = 0.9 | 851.045 | 1229.8
298.15 K, x2 = 0.95 | 820.231 | 1190.2
300.65 K, x2 = 0 | 1174.71 | 1702.9
300.65 K, x2 = 0.058 | 1164.71 | 1715.2
300.65 K, x2 = 0.098 | 1152.72 | 1696.1
300.65 K, x2 = 0.193 | 1127.25 | 1653.7
300.65 K, x2 = 0.296 | 1101.44 | 1610.2
300.65 K, x2 = 0.399 | 1070.73 | 1557.2
300.65 K, x2 = 0.5 | 1035.58 | 1498
300.65 K, x2 = 0.598 | 997.335 | 1435.1
300.65 K, x2 = 0.701 | 953.861 | 1367
300.65 K, x2 = 0.799 | 904.657 | 1296.1
300.65 K, x2 = 0.9 | 848.99 | 1221.9
300.65 K, x2 = 0.95 | 818.13 | 1182
303.15 K, x2 = 0 | 1172.94 | 1696.8
303.15 K, x2 = 0.058 | 1163.06 | 1709.9
303.15 K, x2 = 0.098 | 1151.05 | 1690.8
303.15 K, x2 = 0.193 | 1125.56 | 1648.2
303.15 K, x2 = 0.296 | 1099.72 | 1604.4
303.15 K, x2 = 0.399 | 1068.98 | 1551.2
303.15 K, x2 = 0.5 | 1033.79 | 1491.7
303.15 K, x2 = 0.598 | 995.485 | 1428.4
303.15 K, x2 = 0.701 | 951.952 | 1360
303.15 K, x2 = 0.799 | 902.677 | 1288.7
303.15 K, x2 = 0.9 | 846.93 | 1214
303.15 K, x2 = 0.95 | 816.023 | 1173.8
305.65 K, x2 = 0 | 1171.16 | –
305.65 K, x2 = 0.058 | 1161.41 | –
305.65 K, x2 = 0.098 | 1149.39 | –
305.65 K, x2 = 0.193 | 1123.87 | –
305.65 K, x2 = 0.296 | 1098 | –
305.65 K, x2 = 0.399 | 1067.22 | –
305.65 K, x2 = 0.5 | 1031.98 | –
305.65 K, x2 = 0.598 | 993.634 | –
305.65 K, x2 = 0.701 | 950.042 | –
305.65 K, x2 = 0.799 | 900.694 | –
305.65 K, x2 = 0.9 | 844.863 | –
305.65 K, x2 = 0.95 | 813.907 | –
